Assay results published in patent US12575572B2, “Systems, methods, and apparatuses for disinfection and decontamination” (priority 2020, dated 2026).

System: Phi6 bacteriophage (surrogate for Coronavirus and Ebola)

[O][Cl+][O-] [ClO2, chlorine dioxide]
virions recovered from treated coupons: no virions were recovered
